# Key:
# [1] = tested on: coffee berry borer (CBB), Hypothenemus hampei; assay: Second field study 2008 near Naranjo, Costa Rica: damaged berries 70 days after treatment; format: in vivo; details: Costa Rica 2008, 2500 m^2 blocks, 20 TMBs per hectare, 70 days after treatments were initiated
# Method: A second study was conducted in 2008 near Naranjo, Costa Rica. In this study, blocks treated with either blue and red TMBs had fewer damaged berries 70 days after treatments were initiated than did the untreated block or the block treated with endosulfan. Each block was 2500 m^2 in size and was treated with 20 TMBs per hectare.
# [2] = tested on: coffee berry borer (CBB), Hypothenemus hampei; assay: Third field study 2008 near Alajuela, Costa Rica: damaged berries 70 days after treatment; format: in vivo; details: Costa Rica 2008, 2500 m^2 blocks, 20 TMBs per hectare, 70 days after treatments were initiated
# Method: A third study was conducted in 2008 near Alajuela, Costa Rica. In this study, 2500 m^2 blocks treated with either blue and red TMBs at a rate of 20 TMBs per hectare had fewer damaged berries 70 days after treatments were initiated than did the untreated block, the block treated with endosulfan, or the block treated with red plastic traps.
structure (smiles),measurement,setting,value
O=S1OCC2C(CO1)C1(Cl)C(Cl)=C(Cl)C2(Cl)C1(Cl)Cl (centres unmarked) [endosulfan],Mean % infested berries,[1],1.15%
same,Mean % infested berries,[2],5.9%

# From US8943743B2, “Device for attracting and controlling the coffee berry borer, Hypothenemus hampei (Coleoptera: Scolytidae)” (Plato Industries Ltd, priority 2008, dated 2015)
